Data: US4990500A, “Oxirane pseudooligosaccharides, a process for their preparation, their use and pharmaceutical preparations” (Hoechst Aktiengesellschaft, priority 1986, dated 1991)
Where a name gives a salt, the structure may show the parent alone.

Experiments:
[1] = biological target: T1, α-Amylase from the pig pancreas (Sus scrofa, UniProt P00690); assay: Amylase test (inhibition of α-amylase, soluble starch according to Zulkowski, dinitrosalicylic acid); format: biochemical; settings: for specific activity, α-amylase inhibitor units (AIU) per mg: 1 AIU = amount inhibiting two amylase units to 50%, 37° C., pH 6.9
T1 construct: from tissue; host or cells: pig pancreas
T1 sequence (P00690 16-511): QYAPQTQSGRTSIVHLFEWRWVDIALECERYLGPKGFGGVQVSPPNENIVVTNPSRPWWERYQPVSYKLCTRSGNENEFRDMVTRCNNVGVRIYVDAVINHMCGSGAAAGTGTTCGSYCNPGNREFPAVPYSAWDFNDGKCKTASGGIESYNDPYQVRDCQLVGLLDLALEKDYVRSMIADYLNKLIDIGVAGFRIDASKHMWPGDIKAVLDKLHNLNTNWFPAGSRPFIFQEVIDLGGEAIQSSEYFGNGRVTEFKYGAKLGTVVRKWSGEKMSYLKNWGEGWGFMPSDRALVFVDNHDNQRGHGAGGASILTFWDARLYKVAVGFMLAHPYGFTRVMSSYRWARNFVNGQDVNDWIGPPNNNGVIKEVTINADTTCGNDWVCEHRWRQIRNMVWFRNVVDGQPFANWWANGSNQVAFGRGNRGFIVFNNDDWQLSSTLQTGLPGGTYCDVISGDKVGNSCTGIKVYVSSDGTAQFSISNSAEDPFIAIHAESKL
Procedure: (§1) The specific activities are 4×10^4 α-amylase inhibitor units (AIU) per mg and 1×10^4 saccharase inhibitor unit (SIU) per mg respectively for W-46 H, and 1×10^4 AIU per mg and 3×10^4 SIU per mg respectively for the inhibitor W-46 P. The activities were determined in the following tests:
An amylase inhibitor unit (AIU) is defined as the amount of inhibitor which is capable of inhibiting two amylase units (AU) to 50% under the test conditions. According to international agreement, one amylase unit is the amount enzyme which cleaves 1 μequivalent of glucoside bonds in the starch in one minute. The μgram-equivalents of cleaved glucoside bonds are determined photometrically using dinitrosalicylic acid as the μgram-equivalents of reducing sugars. The data are calculated as μmoles of maltose, determined with reference to a maltose calibration line.
The tests are carried out as follows:
α-Amylase from the pig pancreas and the solutions to be tested are preincubated together at 37° C. for 10-20 minutes in 1.0 ml of 20 mM phosphate buffer, pH 6.9+10 mM of NaCl. The enzymatic reaction is initiated according to Zulkowski by adding 1.0 ml of soluble starch (0.25% in the buffer specified). After exactly 10 minutes, the reaction is terminated using 2.0 ml of dinitrosalicylic acid coloring reagent (according to Boehringer Mannheim: BiochemicaInformation II) and the mixture is heated for 5 minutes in a boiling water bath to develop the color. After cooling, the extinction is measured at 546 nm against the blank reagent. 50% inhibition is determined graphically compared to the uninhibited enzyme reaction by means of the probability plot by using various amounts of inhibitor.

[2] = biological target: T2, saccharase (disaccharidases from the small intestine mucosa) (Homo sapiens, UniProt P14410); assay: Saccharase test (inhibition of saccharase, hexokinase/glucose-6-phosphate dehydrogenase method); format: biochemical; settings: for specific activity, saccharase inhibitor units (SIU) per mg: 1 SIU = amount inhibiting two saccharase units to 50%
T2 construct: from tissue
Procedure: as §1
One saccharase inhibitor unit (SIU) is defined as the amount of inhibitor which is capable of inhibiting to 50% two saccharase units (SU) under the test conditions. According to international agreement, one SU is the amount of enzyme which cleaves 1 μequivalent of glycoside bonds in saccharose in one minute. The μgram-equivalents of cleaved glucoside bonds are determined photometrically using the hexokinase/glucose-6-phosphate dehydrogenase method as 2 μgram equivalents. The data are calculated as μmoles of hexoses, determined with reference to a glucose calibration curve.
The tests were carried out according to H. U. Bergmeyer, described in "Methods of Enzymatic Analysis", 3rd edition, Verlag Chemie, Weinheim, 1984, pages 96-103.

[3] = system: blood glucose concentration of starch-fed rats; assay: Action on the blood glucose concentration of starch-fed rats; format: in vivo, male Wistar rats; settings: for Blood glucose: 2 g/kg starch, mean ± SEM, n = 7
Text: (§2) In order to test the pharmacological action of the α-glucosidase inhibitors, unfed, male Wistar rats weighing between 200 and 250 g were given orally an inhibitor W-46 H or W-46 P according to the invention together with 2 g of starch or sucrose per kg of body weight as a suspension in ®Tylose (methylhydroxyethylcellulose).
(§3) In these investigations, the values collated in Tables 1 (action on the blood glucose concentration of starch-fed rats) and 2 (action on the blood glucose concentration of sucrose-fed rats) were determined for inhibitor W-46 H.
(§4) A limiting value of 0.27 mg/kg of rat is calculated from the values given in Table 1 and a limiting value of 1.29 mg/kg of rat from the values given in Table 2 (the limiting value of the active ingredient is taken to mean the amount per kg of experimental animal at whose administration a clear action can still be seen after one hour).

[4] = system: blood glucose concentration of sucrose-fed rats; assay: Action on the blood glucose concentration of sucrose-fed rats; format: in vivo, male Wistar rats; settings: for Blood glucose: 2 g/kg sucrose, mean ± SEM, n = 7
Text: as §2, §3, §4

experimental animals = assay: Oral administration of high doses to experimental animals (symptoms); format: in vivo; settings: even high doses

T2 sequence (P14410 whole entry): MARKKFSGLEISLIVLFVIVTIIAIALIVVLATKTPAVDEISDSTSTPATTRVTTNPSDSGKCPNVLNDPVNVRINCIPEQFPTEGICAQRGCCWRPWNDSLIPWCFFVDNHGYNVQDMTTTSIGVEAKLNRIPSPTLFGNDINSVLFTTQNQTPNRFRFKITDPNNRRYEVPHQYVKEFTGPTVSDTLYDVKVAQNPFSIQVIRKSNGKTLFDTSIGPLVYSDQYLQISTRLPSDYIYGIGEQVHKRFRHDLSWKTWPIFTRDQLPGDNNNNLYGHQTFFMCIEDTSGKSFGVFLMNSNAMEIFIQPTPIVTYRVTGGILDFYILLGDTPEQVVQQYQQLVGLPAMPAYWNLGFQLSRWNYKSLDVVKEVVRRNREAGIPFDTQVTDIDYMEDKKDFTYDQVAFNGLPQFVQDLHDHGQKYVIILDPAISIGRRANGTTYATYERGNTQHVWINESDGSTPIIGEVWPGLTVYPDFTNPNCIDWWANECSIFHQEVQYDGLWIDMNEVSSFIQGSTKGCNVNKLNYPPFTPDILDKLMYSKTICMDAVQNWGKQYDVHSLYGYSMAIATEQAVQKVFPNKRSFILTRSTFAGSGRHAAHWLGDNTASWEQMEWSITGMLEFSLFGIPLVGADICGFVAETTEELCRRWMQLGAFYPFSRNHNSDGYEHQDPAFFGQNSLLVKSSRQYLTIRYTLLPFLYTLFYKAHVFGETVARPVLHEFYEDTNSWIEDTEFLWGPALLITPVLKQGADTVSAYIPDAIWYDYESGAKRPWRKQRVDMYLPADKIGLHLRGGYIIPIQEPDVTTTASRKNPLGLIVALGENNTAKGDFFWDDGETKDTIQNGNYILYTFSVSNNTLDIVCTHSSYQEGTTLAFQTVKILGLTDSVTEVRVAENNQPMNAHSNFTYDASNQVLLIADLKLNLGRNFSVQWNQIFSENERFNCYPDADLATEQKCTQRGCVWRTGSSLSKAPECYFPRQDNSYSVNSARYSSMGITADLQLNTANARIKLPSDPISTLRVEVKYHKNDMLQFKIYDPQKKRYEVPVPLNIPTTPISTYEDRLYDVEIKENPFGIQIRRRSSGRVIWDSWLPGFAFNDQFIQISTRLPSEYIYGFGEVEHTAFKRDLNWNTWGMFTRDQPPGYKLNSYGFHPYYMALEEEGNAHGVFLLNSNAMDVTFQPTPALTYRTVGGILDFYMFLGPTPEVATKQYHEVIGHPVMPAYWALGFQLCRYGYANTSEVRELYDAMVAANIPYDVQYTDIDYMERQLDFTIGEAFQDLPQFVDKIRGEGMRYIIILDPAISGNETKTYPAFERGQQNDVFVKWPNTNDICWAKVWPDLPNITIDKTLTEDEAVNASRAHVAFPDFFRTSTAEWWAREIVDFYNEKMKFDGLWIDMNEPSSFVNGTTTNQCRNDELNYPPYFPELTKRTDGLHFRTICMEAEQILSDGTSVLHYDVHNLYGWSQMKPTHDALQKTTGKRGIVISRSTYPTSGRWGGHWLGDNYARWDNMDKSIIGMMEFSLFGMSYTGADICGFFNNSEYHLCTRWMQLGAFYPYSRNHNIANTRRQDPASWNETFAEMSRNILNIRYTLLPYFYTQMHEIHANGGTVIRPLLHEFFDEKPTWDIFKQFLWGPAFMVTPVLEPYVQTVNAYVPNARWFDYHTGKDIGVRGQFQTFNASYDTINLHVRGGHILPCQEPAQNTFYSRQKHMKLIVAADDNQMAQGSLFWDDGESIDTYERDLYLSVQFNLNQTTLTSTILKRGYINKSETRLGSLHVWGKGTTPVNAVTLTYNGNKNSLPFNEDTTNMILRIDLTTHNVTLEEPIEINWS

## CC1OC(OC2C(CO)OC(O)C(O)C2O)C(O)C(O)C1NC1C(O)C(O)C(OC2OC(CO)C(OC3OC(C)C(NC4C(O)C(O)C(O)C5(CO)OC45)C(O)C3O)C(O)C2O)C2(CO)OC12 (centres unmarked) [W-46 H chloride]
[1]
  specific activity, α-amylase inhibitor units (AIU) per mg: 3.9×10^4 AIU/mg
[2]
  specific activity, saccharase inhibitor units (SIU) per mg: 1×10^4 SIU/mg

## CC1OC(OC2C(CO)OC(O)C(O)C2O)C(O)C(O)C1NC1C(O)C(O)C(OC2OC(CO)C(OC3OC(C)C(NC4C(O)C(O)C(O)C5(CO)OC45)C(O)C3O)C(O)C2O)C2(CO)OC12 (centres unmarked) [W-46 H glucuronate]
[1]
  specific activity, α-amylase inhibitor units (AIU) per mg: 3.6×10^4 AIU/mg
[2]
  specific activity, saccharase inhibitor units (SIU) per mg: 9×10^3 SIU/mg

## CC1OC(OC2C(CO)OC(O)C(O)C2O)C(O)C(O)C1NC1C(O)C(O)C(OC2OC(CO)C(OC3OC(C)C(NC4C(O)C(O)C(O)C5(CO)OC45)C(O)C3O)C(O)C2O)C2(CO)OC12 (centres unmarked) [W-46 H sulfate]
[1]; sulfate, printed without per mg
  specific activity (α-amylase inhibitor units): 3.8×10^4 AIU
[2]
  specific activity, saccharase inhibitor units (SIU) per mg: 9.6×10^3 SIU/mg

## CC1OC(OC2C(CO)OC(O)C(O)C2O)C(O)C(O)C1NC1C(O)C(O)C(OC2OC(CO)C(OC3OC(C)C(NC4C(O)C(O)C(O)C5(CO)OC45)C(O)C3O)C(O)C2O)C2(CO)OC12 (centres unmarked) [W-46 H]
[1]
  inhibition of the α-amylase from the pancreas (in words): strongly inhibit
  specific activity, α-amylase inhibitor units (AIU) per mg: 4×10^4 AIU/mg
[1]; listed as W-46 H (free base)
  specific activity, α-amylase inhibitor units (AIU) per mg: 4×10^4 AIU/mg
[2]
  inhibition of the disaccharidases from the small intestine mucosa, in particular the saccharase (in words): strongly inhibit
  specific activity, saccharase inhibitor units (SIU) per mg: 1×10^4 SIU/mg
[2]; listed as W-46 H (free base)
  specific activity, saccharase inhibitor units (SIU) per mg: 1×10^4 SIU/mg
[3]; Rattus norvegicus, po, 1 h, starch-fed rats, p.o., calculated from Table 1, read-out: limiting value (amount per kg at whose administration a clear action can still be seen after one hour)
  minimal effective dose: 0.27 mg/kg
[3]; p.o. dose 0.3 mg/kg, 0 hours
  Blood glucose: 3.77 ± 0.09 mmol/L
[3]; p.o. dose 0.3 mg/kg, 0.5 hours
  Blood glucose: 5.53 ± 0.17 mmol/L
[3]; p.o. dose 0.3 mg/kg, 1 hour
  Blood glucose: 5.59 ± 0.06 mmol/L
[3]; p.o. dose 0.3 mg/kg, 2 hours
  Blood glucose: 5.67 ± 0.13 mmol/L
[3]; p.o. dose 0.3 mg/kg, 3 hours
  Blood glucose: 4.86 ± 0.18 mmol/L
[3]; p.o. dose 0.3 mg/kg, 5 hours
  Blood glucose: 4.39 ± 0.13 mmol/L
[3]; p.o. dose 1.0 mg/kg, 0 hours
  Blood glucose: 3.93 ± 0.10 mmol/L
[3]; p.o. dose 1.0 mg/kg, 0.5 hours
  Blood glucose: 5.04 ± 0.08 mmol/L
[3]; p.o. dose 1.0 mg/kg, 1 hour
  Blood glucose: 5.07 ± 0.09 mmol/L
[3]; p.o. dose 1.0 mg/kg, 2 hours
  Blood glucose: 4.99 ± 0.14 mmol/L
[3]; p.o. dose 1.0 mg/kg, 3 hours
  Blood glucose: 4.57 ± 0.10 mmol/L
[3]; p.o. dose 1.0 mg/kg, 5 hours
  Blood glucose: 4.13 ± 0.08 mmol/L
[4]; Rattus norvegicus, po, 1 h, sucrose-fed rats, p.o., calculated from Table 2, read-out: limiting value (amount per kg at whose administration a clear action can still be seen after one hour)
  minimal effective dose: 1.29 mg/kg
[4]; p.o. dose 1 mg/kg, 0 minutes
  Blood glucose: 3.99 ± 0.10 mmol/1
[4]; p.o. dose 1 mg/kg, 15 minutes
  Blood glucose: 6.07 ± 0.28 mmol/1
[4]; p.o. dose 1 mg/kg, 30 minutes
  Blood glucose: 6.01 ± 0.22 mmol/1
[4]; p.o. dose 1 mg/kg, 60 minutes
  Blood glucose: 6.34 ± 0.14 mmol/1
[4]; p.o. dose 1 mg/kg, 120 minutes
  Blood glucose: 5.45 ± 0.13 mmol/1
[4]; p.o. dose 1 mg/kg, 240 minutes
  Blood glucose: 4.57 ± 0.07 mmol/1
[4]; p.o. dose 3 mg/kg, 0 minutes
  Blood glucose: 3.94 ± 0.14 mmol/1
[4]; p.o. dose 3 mg/kg, 15 minutes
  Blood glucose: 5.71 ± 0.23 mmol/1
[4]; p.o. dose 3 mg/kg, 30 minutes
  Blood glucose: 5.53 ± 0.19 mmol/1
[4]; p.o. dose 3 mg/kg, 60 minutes
  Blood glucose: 5.47 ± 0.15 mmol/1
[4]; p.o. dose 3 mg/kg, 120 minutes
  Blood glucose: 5.20 ± 0.16 mmol/1
[4]; p.o. dose 3 mg/kg, 240 minutes
  Blood glucose: 4.83 ± 0.15 mmol/1
[4]; p.o. dose 10 mg/kg, 0 minutes
  Blood glucose: 4.01 ± 0.15 mmol/1
[4]; p.o. dose 10 mg/kg, 15 minutes
  Blood glucose: 5.06 ± 0.20 mmol/1
[4]; p.o. dose 10 mg/kg, 30 minutes
  Blood glucose: 5.11 ± 0.10 mmol/1
[4]; p.o. dose 10 mg/kg, 60 minutes
  Blood glucose: 4.82 ± 0.09 mmol/1
[4]; p.o. dose 10 mg/kg, 120 minutes
  Blood glucose: 4.50 ± 0.11 mmol/1
[4]; p.o. dose 10 mg/kg, 240 minutes
  Blood glucose: 4.29 ± 0.22 mmol/1
Experimental animals
  striking symptoms after oral administration: not possible to detect striking symptoms

## CC1OC(O)C(O)C(O)C1NC1C(O)C(O)C(OC2OC(CO)C(OC3OC(C)C(NC4C(O)C(O)C(O)C5(CO)OC45)C(O)C3O)C(O)C2O)C2(CO)OC12 (centres unmarked) [W-46 P]
[1]
  inhibition of the α-amylase from the pancreas (in words): strongly inhibit
  specific activity, α-amylase inhibitor units (AIU) per mg: 1×10^4 AIU/mg
[2]
  inhibition of the disaccharidases from the small intestine mucosa, in particular the saccharase (in words): strongly inhibit
  specific activity, saccharase inhibitor units (SIU) per mg: 3×10^4 SIU/mg
Experimental animals
  striking symptoms after oral administration: not possible to detect striking symptoms
